Measured values taken from ChEMBL document CHEMBL4680162, “Synthesis and pharmacological evaluation of chlorin derivatives for photodynamic therapy of cholangiocarcinoma” (Eur J Med Chem, 2020).
One block for each compound: values may come before it. Calls of active or inactive are those of the source. No cut-off for these calls is given here.

What was measured:
[1] = Dark toxicity in human QBC939 cells assessed as reduction in cell viability incubated under dark for 24 hrs measured after 24 hrs by MTT assay; format: cell-based; conditions: read-out: TC50
[2] = Photodynamic antitumor activity against human QBC939 cells xenografted in BALB/c nude mouse assessed as tumor weight at 1 mg/kg, iv followed by laser light irradiation at 120 J/cm2 measured after 13 days; format: functional; conditions: time 13 day
[3] = Phototoxicity in ICR mouse assessed as ear weight at 1 mg/kg, iv followed by 10 mW/cm2 light irradiation for 10 mins at 1 day after drug challenge and measured after 1 day of light irradiation by H and E staining based microscopic analysis (reference value: 12.4 +/- 1.5 mg); format: organism-based; conditions: in vivo, 48 h, time 2 day
QBC939 [4] = assay: Photodynamic antitumour activity against human QBC939 cells xenografted in BABL/c nude mouse assessed as increase in apoptotic cells at 1 mg/kg, iv measured after 1 day of light irradiation by TUNEL assay; format: functional, organism-based
[5] = Phototoxicity in ICR mouse assessed as skin erythema at 1 mg/kg, iv followed by 10 mW/cm2 light irradiation for 10 mins at 1 day after drug challenge and measured after 1 day of light irradiation by H and E staining based microscopic analysis; format: organism-based; conditions: in vivo, 48 h, time 2 day
QBC939 [6] = assay: Photodynamic antitumor activity against human QBC939 cells xenografted in BALB/c nude mouse assessed as decrease in tumor weight at 1 mg/kg, iv under dark condition measured after 13 days; format: functional, organism-based; conditions: time 13.0 day
[7] = Phototoxicity against human QBC939 cells assessed as reduction in cell viability irradiated with 1 J/cm2 of 650 nanometer laser light preincubated for 24 hrs in dark and measured after 24 hrs by MTT assay; format: functional, cell-based; conditions: QBC939, light or radiation study
[8] = Phototoxicity in ICR mouse assessed as skin swelling at 1 mg/kg, iv followed by 10 mW/cm2 light irradiation for 10 mins at 1 day after drug challenge and measured after 1 day of light irradiation by H and E staining based microscopic analysis; format: organism-based; conditions: in vivo, 48 h, time 2 day
[9] = Phototoxicity against human QBC939 cells assessed as reduction in cell viability irradiated with 2 J/cm2 of 650 nanometer laser light preincubated for 24 hrs in dark and measured after 24 hrs by MTT assay; format: functional, cell-based; conditions: QBC939, light or radiation study
[10] = Phototoxicity in ICR mouse assessed as dermal inflammation 1 mg/kg, iv in presence of 10 mW/cm2 light irradiation for 10 mins at 1 day after drug challenge and measured after 1 day of light irradiation by H and E staining based microscopic analysis; format: organism-based; conditions: in vivo, 48 h, time 2 day
[11] = Phototoxicity against human QBC939 cells assessed as reduction in cell viability irradiated with 4 J/cm2 of 650 nanometer laser light preincubated for 24 hrs in dark and measured after 24 hrs by MTT assay; format: functional, cell-based; conditions: QBC939, light or radiation study
[12] = Phototoxicity in ICR mouse assessed as back skin weight at 1 mg/kg, iv followed by 10 mW/cm2 light irradiation for 10 mins at 1 day after drug challenge and measured after 1 day of light irradiation by H and E staining based microscopic analysis (reference value: 34.3 +/- 2.1 mg); format: organism-based; conditions: in vivo, 48 h, time 2 day
[13] = Phototoxicity in ICR mouse assessed as ear swelling at 1 mg/kg, iv followed by 10 mW/cm2 light irradiation for 10 mins at 1 day after drug challenge and measured after 1 day of light irradiation by H and E staining based microscopic analysis; format: organism-based; conditions: in vivo, 48 h, time 2 day
[14] = Phototoxicity in ICR mouse assessed as neck skin weight at 1 mg/kg, iv followed by 10 mW/cm2 light irradiation for 10 mins at 1 day after drug challenge and measured after 1 day of light irradiation by H and E staining based microscopic analysis (reference value: 36.5 +/- 2.4 mg); format: organism-based; conditions: in vivo, 48 h, time 2 day
[15] = Phototoxicity in ICR mouse assessed as tail weight at 1 mg/kg, iv followed by 10 mW/cm2 light irradiation for 10 mins at 1 day after drug challenge and measured after 1 day of light irradiation by H and E staining based microscopic analysis (reference value: 115.6 +/- 5.6 mg); format: organism-based; conditions: in vivo, 48 h, time 2 day
[16] = Induction of apoptosis in human QBC939 cells assessed as early apoptotic cells at 2 uM in presence of 2J/cm2 light irradiation measured after 24 hrs by annexin V-FITC and propidium iodide staining based flow cytometric analysis (reference value: 0.01 %); format: functional
[17] = Absorption property of compound in poly-oxyethylene castor oil and PBS assessed as Q band log absorption coefficient by UV-visible spectrophotometric method; format: physicochemical; conditions: buffer
[18] = Induction of apoptosis in human QBC939 cells assessed as necrotic cells at 2 uM in presence of 2J/cm2 light irradiation measured after 24 hrs by annexin V-FITC and propidium iodide staining based flow cytometric analysis (reference value: 0.02 %); format: functional
[19] = Drug uptake in mouse assessed as drug level in plasma at 1 mg/kg, iv measured upto 24 hrs by fluorometric method; format: ADME, organism-based; conditions: in vivo
[20] = Phototoxicity in ICR mouse assessed as pathological changes 1 mg/kg, iv in presence of 10 mW/cm2 light irradiation for 10 mins at 1 day after drug challenge and measured after 1 day of light irradiation by H and E staining based microscopic analysis; format: organism-based; conditions: in vivo, 48 h, time 2 day
[21] = Induction of apoptosis in human QBC939 cells assessed as viable cells at 2 uM in presence of 2J/cm2 light irradiation measured after 24 hrs by annexin V-FITC and propidium iodide staining based flow cytometric analysis (reference value: 99.6 %); format: functional; conditions: QBC939, light or radiation study, read-out: Activity
[22] = Induction of apoptosis in human QBC939 cells assessed as necrotic cells at 2 uM in presence of 2J/cm2 light irradiation measured after 2 hrs by annexin V-FITC and propidium iodide staining based flow cytometric analysis (reference value: 0.02 %); format: functional
[23] = Emission property of compound in DMSO assessed as Q band emission wavelength by […]; format: physicochemical
[24] = Drug localization in nucleus of human QBC939 cells at 4 uM incubated for 4 hrs in dark by Hoechst 33342 based confocal microscopic method; format: ADME, subcellular; conditions: qbc939, 4 h
[25] = Induction of apoptosis in human QBC939 cells assessed as viable cells at 2 uM in presence of 2J/cm2 light irradiation measured after 2 hrs by annexin V-FITC and propidium iodide staining based flow cytometric analysis (reference value: 99.6 %); format: functional; conditions: QBC939, light or radiation study, read-out: Activity
[26] = Absorption property of the compound in DMSO assessed as Q band log absorption coefficient by UV-visible spectrophotometric method; format: physicochemical
[27] = Induction of apoptosis in human QBC939 cells assessed as late apoptotic cells at 2 uM in presence of 2J/cm2 light irradiation measured after 24 hrs by annexin V-FITC and propidium iodide staining based flow cytometric analysis (reference value: 0.01 %); format: functional
[28] = Induction of apoptosis in human QBC939 cells assessed as necrotic cells at 2 uM by annexin V-FITC and propidium iodide staining based flow cytometric analysis; format: functional
[29] = Emission property of compound in poly-oxyethylene castor oil and PBS assessed as Q band emission wavelength by […]; format: physicochemical; conditions: buffer
[30] = Drug localization in lysosome of human QBC939 cells at 4 uM incubated for 4 hrs in dark by lyso-tracker blue based confocal microscopic method; format: ADME, subcellular; conditions: qbc939, 4 h
[31] = Induction of apoptosis in human QBC939 cells assessed as early apoptotic cells at 2 uM in presence of 2J/cm2 light irradiation measured after 2 hrs by annexin V-FITC and propidium iodide staining based flow cytometric analysis (reference value: 0.01 %); format: functional
[32] = Absorption property of the compound in DMF assessed as Q band log absorption coefficient by UV-visible spectrophotometric method; format: physicochemical
[33] = Induction of apoptosis in human QBC939 cells assessed as late apoptotic cells at 2 uM by annexin V-FITC and propidium iodide staining based flow cytometric analysis; format: functional
[34] = Drug localization in mitochondria of human QBC939 cells at 4 uM incubated for 4 hrs in dark by mito-tracker green based confocal microscopic method; format: ADME; conditions: qbc939, 4 h
[35] = Drug uptake in nude mouse xenografted with QBC939 cells assessed as drug level in tumor tissue at 1 mg/kg, iv measured after 24 hrs by fluorescence imaging assay; format: ADME, organism-based, Neoplasm; conditions: in vivo
[36] = Induction of apoptosis in human QBC939 cells assessed as early apoptotic cells at 2 uM by annexin V-FITC and propidium iodide staining based flow cytometric analysis (reference value: 0.01 %); format: functional
[37] = Induction of apoptosis in human QBC939 cells assessed as viable cells at 2 uM by annexin V-FITC and propidium iodide staining based flow cytometric analysis (reference value: 99.99 %); format: functional; conditions: read-out: Activity
[38] = Emission property of compound in DMF assessed as Q band emission wavelength by […]; format: physicochemical
[39] = Induction of singlet oxygen generation in DMSO assessed as bleaching rate at 10 uM under 650 nanometer light irradiation; format: functional
[40] = Drug uptake in human QBC939 cells at 4 uM by fluorescence spectrophotometer analysis; format: ADME, cell-based; conditions: qbc939, 4 µM
[41] = Absorption property of the compound in DMSO assessed as Q band maximum absorption wavelength by UV-visible spectrophotometric method; format: physicochemical
[42] = Drug uptake in nude mouse xenografted with QBC939 cells assessed as drug level in tumor tissue at 1 mg/kg, iv measured after 8 hrs by fluorescence imaging assay; format: ADME, organism-based, Neoplasm; conditions: in vivo
[43] = Induction of singlet oxygen generation in DMF solution irradiated with 650 nanometer laser light in every 1 min by ESR assay; format: functional
[44] = Absorption property of the compound in DMF assessed as Q band maximum absorption wavelength by UV-visible spectrophotometric method; format: physicochemical
[45] = Absorption property of compound in poly-oxyethylene castor oil and PBS assessed as Q band maximum absorption wavelength by UV-visible spectrophotometric method; format: physicochemical; conditions: buffer
[46] = Induction of apoptosis in human QBC939 cells assessed as late apoptotic cells at 2 uM in presence of 2J/cm2 light irradiation measured after 2 hrs by annexin V-FITC and propidium iodide staining based flow cytometric analysis (reference value: 0.01 %); format: functional

SMILES: Oc1cccc(-c2c3nc(c(-c4cccc(O)c4)c4ccc([nH]4)c(-c4cccc(O)c4)c4nc(c(-c5cccc(O)c5)c5ccc2[nH]5)CC4)C=C3)c1 [TEMOPORFIN]
- CC50 at 48 h [1]: 6080 nM
- Activity [2]: 35%
- Activity [3]: 15.6 mg
- Activity (QBC939 [4]): Active
- Activity [5]: Toxic
- Activity (QBC939 [6]): inactive
- IC50 [7]: 2960 nM
- Activity [8]: Toxic
- IC50 [9]: 1460 nM
- Activity [10]: Toxic
- IC50 [11]: 630 nM
- Activity [12]: 39.2 mg
- Activity [13]: Toxic
- Activity [14]: 42.7 mg
- Activity [15]: 120.4 mg

- Activity [17]: 3.34
- Drug uptake [19]: Active
- Activity [23]: 650 nm
- Drug uptake [24]: Not Active
- Activity [26]: 4
- Activity [29]: 655 nm
- Drug uptake [30]: Active
- Activity [32]: 4.03
- Drug uptake [34]: Active
- Drug uptake [35]: Active
- Activity [38]: 652 nm
- Drug uptake [40]: Active
- Activity [41]: 654 nm
- Drug uptake [42]: Active
- Activity [44]: 652 nm
- Activity [45]: 650 nm
SMILES: COC(=O)C1(C(=O)NCCO)C2c3nc(c(-c4ccccc4)c4ccc([nH]4)c(-c4ccccc4)c4nc(c(-c5ccccc5)c5ccc([nH]5)c3-c3ccccc3)C=C4)C21 (configuration not stated)
- CC50 at 48 h [1]: > 8000 nM
- Activity [16]: 19.8%
- Activity [2]: 17%
- Activity [3]: 13.2 mg
- Activity [18]: 9.7%
- Activity (QBC939 [4]): Active
- Activity [20]: Non-Toxic
- viability at 2 µM [21]: 25.6%
- Activity [22]: 17.07%
- viability at 2 µM [25]: 75.9%
- Activity [27]: 44.9%
- Activity (QBC939 [6]): inactive
- IC50 [7]: 3410 nM
- Activity [28]: 0.96%
- Activity [31]: 2.1%
- Activity [33]: 2.32%
- IC50 [9]: 1920 nM
- Activity [36]: 1.65%
- IC50 [11]: 1170 nM
- Activity [12]: 35.3 mg
- viability at 2 µM [37]: 95.1%
- Activity [39]: Active
- Activity [14]: 38.1 mg
- Activity [15]: 114.9 mg
- Activity [43]: Active
- Activity [46]: 4.9%
